In patent US20140274990A1, “CEFTOLOZANE PHARMACEUTICAL COMPOSITIONS” (Cubist Pharmaceuticals, Inc., priority 2013, published 2014):

Experiment: stability testing of initial lyophilized ceftolozane pharmaceutical compositions, HPLC
Format: physicochemical
Settings: certain lyophilized pharmaceutical compositions initially evaluated for intravenous administration
Source text: As disclosed herein, ceftolozane was unstable in certain lyophilized pharmaceutical compositions initially evaluated for intravenous administration. In particular, a decrease in ceftolozane purity and the formation of multiple additional related substances were detected in certain initial ceftolozane pharmaceutical compositions by peaks in […] (HPLC) after stability testing. This testing pointed to the need to develop novel ceftolozane formulations providing increased ceftolozane stability. […] Nor does this disclosure provide guidance on the formation of ceftolozane pharmaceutical compositions to increase ceftolozane purity during stability testing or control the relative amounts of ceftolozane related substances detected by HPLC peak formation during stability testing.

ceftolozane stability in lyophilized composition: unstable
SMILES: Cn1c(N)c(NC(=O)NCCN)c[n+]1CC1=C(C(=O)O)N2C(=O)[C@@H](NC(=O)/C(=N\OC(C)(C)C(=O)[O-])c3nsc(N)n3)[C@H]2SC1 [ceftolozane, (6R,7R)-3-[(5-amino-4-{[(2-aminoethyl)carbamoyl]amino}-1-methyl-1H-pyrazol-2-ium-2-yl)methyl]-7-({(2Z)-2-(5-amino-1,2,4-thiadiazol-3-yl)-2-[(1-carboxy-1-methylethoxy)imino]acetyl}amino)-8-oxo-5-thia-1-azabicyclo[4.2.0]oct-2-ene-2-carboxylate]
